Experimental data reported in US20210403415A1, “COMPOUNDS AND METHODS TO ATTENUATE TUMOR PROGRESSION AND METASTASIS” (THE TRUSTEES OF INDIANA UNIVERSITY, priority 2018, published 2021).
Where two headings read alike, the source gives them in different places.

Tests used:
TEAD4.Yap1 interaction [1] = molecular target: T1, TEAD4.Yap1 interaction (Homo sapiens, UniProt Q15561); assay: Fluorescence polarization, GST-TEAD4 with FAM-Yap60-99 peptide; assay type: binding; set-up: TEAD4 (217-434), TEAD4 (217-434) Cys367Ser mutant and Yap1 (Full-length) were expressed as GST-fusion proteins; made in house; host or cells: E. coli BL-21 (DE3), pGEX-6P-1; conditions: for inhibition / maximum inhibition of TEAD4.Yap1 interaction: 24 h incubation at 4° C.; for t1/2^∞ (half-life of inactivation): corresponding to kinact
Description: (§1) GST-TEAD4, GST-TEAD4 Cys367Ser mutant or HIS-TEAD2 interaction with Yap1 was investigated using a fluorescently-labeled peptide (FAM-Yap60-99), consisting of FAM-labeled TEAD-binding peptide fragment of Yap1 (FAM-[…] TVPMCLRKLPASFCKPP), which has a disulfide bridge (American Peptide, Sunnyvale, Calif.). Addition of FAM-Yap60-99 to the TEAD was followed by measurement of changes in polarization. 40 μL of 125 nM GST-TEAD4 WT or GST-TEAD4 Cys367Ser in assay buffer (PBS with 0.01% v/v Triton-X100) or 40 μL of 64 nM HIS-TEAD2 was added to a 384-well black polystyrene plate (Cat. No. 262260; Nunc, Roskilde, Denmark) and incubated with 5 μL of […] serially diluted compounds in assay buffer supplemented with 20% v/v DMSO for 24 h at 4° C. Finally, 5 μL of 160 nM FAM-Yap60-99 peptide was added, the plate centrifuged, and the polarization was measured on an Envision Multilabel Plate Reader (PerkinElmer, Waltham, Mass.) using a filter set with excitation and emission wavelengths of 485 and 535 nm, respectively. Percent inhibition was calculated as relative to a minimum inhibition control, which is without compound, and a maximum inhibition control, which is without a TEAD.
For the determination of the inhibition efficiency kinact/K1, the protein compound incubation time was varied between […], prior to the addition of the FAM-Yap60-99 peptide and fluorescence polarization measurements. The progressive decrease in TEAD activities were plotted against time for all 10 concentrations ([…]) of the compounds and the observed rate of inhibition (kobs) was calculated by fitting a simple exponential function.
The observed rate of inhibition was then plotted against the concentration of the compound and a […] function kobs=kinact[Inhibitor]/K1+[Inhibitor] was fitted to determine the kinact and K1 values.

CTGF transcript levels [2] = assay: qRT-PCR of CTGF transcript in GBM43 cells; assay type: cell-based, human; conditions: FIG. 8C
TEAD4 Cys367Ser mutant [3] = molecular target: T2, TEAD4 Cys367Ser mutant (Homo sapiens, UniProt Q15561, C367S); assay: Whole protein ESI mass spectrometry, adduct formation with mutant; assay type: binding; conditions: 10 μM mutant, 200 μM compound, 24 h at 4° C.
T2 construct: TEAD4 (217-434) Cys367Ser mutant and Yap1 (Full-length) were expressed as GST-fusion proteins; made in house; host or cells: E. coli BL-21 (DE3), pGEX-6P-1
Description: The samples were centrifuged at 20,000×g for […] to remove precipitants before being injected into an empty column on an Agilent 1200 liquid chromatography system (Agilent, Santa Clara, Calif.), using 80% Buffer A (H2O, 5 mM NH4OAc) and 20% Buffer B (ACN, 5 mM NH4OAc), and the masses were detected on an Agilent 6520 Accurate Mass Q-TOF.
FIG. 4A illustrates analysis by ESI mass spectrometry after 10 μM TEAD4 Cys367Ser mutant was incubated with 200 μM compound for 24 h at 4° C. FIG. 4B illustrates measurement of fluorescence polarization due to binding when increasing concentration of TEAD4 Cys367Ser mutant was mixed with 16 nM FAM-Yap60-99 peptide (mean±s.d.; n=3). FIG. 4C illustrates measurement of fluorescence polarization due to binding when TEAD4 Cys367Ser mutant was incubated with increasing concentration of compounds for 24 h at 4° C. followed by addition of FAM-Yap60-99 (mean±s.d.; n=3).

TEAD4 Cys367Ser mutant [4] = molecular target: T2, TEAD4 Cys367Ser mutant; assay: Fluorescence polarization, GST-TEAD4 Cys367Ser mutant with FAM-Yap60-99 peptide; assay type: binding; conditions: 24 h at 4° C.
Description: as §1

TEAD4.Yap1 interaction [5] = molecular target: T1, TEAD4.Yap1 interaction; assay: Fluorescence polarization, GST-TEAD4 with FAM-Yap60-99 peptide; assay type: binding; set-up: TEAD4 (217-434), TEAD4 (217-434) Cys367Ser mutant and Yap1 (Full-length) were expressed as GST-fusion proteins; made in house; host or cells: E. coli BL-21 (DE3), pGEX-6P-1; conditions: 0.5, 6, 24, 48 h incubation at 4° C., 0.1-100 μM
CTGF transcript levels [6] = assay: qRT-PCR of CTGF transcript in HEK293 cells; assay type: cell-based; conditions: HEK293, 48 h
Description: HEK293 cells co-transfected the Flag-YAP and myc-TEAD4 constructs were incubated with DMSO or the indicated amount of compounds for 48 h. Total RNA was purified using the RNeasy plus mini kit (QIAGEN, Hilden, Germany) according to the manufacturer's instructions. Complementary DNA was synthesized from 500 ng total RNA with Oligo-dT primers and the Multi-Scribe reverse transcriptase (Fisher, Waltham, Mass.) according to the manufacturer's instructions.
Real-time PCR reactions utilized 100 ng cDNA, 200 nM gene specific primers and the Sensifast No-ROX mix (Bioline, Taunton, Mass.) in a total volume of 20 μl. All measurements were carried out in triplicate using an Eppendorf Mastercycler® RealPlex2. The sequences of primers for CTGF were forward, 5′-TTGGCCCAGACCCAACTA-3 (SEQ ID NO: 1); and reverse, 5′-GCAGGAGGCGTTGTCATT-3′ (SEQ ID. NO: 2). The primer sequences for (3-actin were forward, 5′-TTGGCAATGAGCGGTTCC-3 (SEQ ID NO: 3); and reverse, 5′-[…]-3′ (SEQ ID NO: 4).

T2 sequence (Q15561 217-434 C367S): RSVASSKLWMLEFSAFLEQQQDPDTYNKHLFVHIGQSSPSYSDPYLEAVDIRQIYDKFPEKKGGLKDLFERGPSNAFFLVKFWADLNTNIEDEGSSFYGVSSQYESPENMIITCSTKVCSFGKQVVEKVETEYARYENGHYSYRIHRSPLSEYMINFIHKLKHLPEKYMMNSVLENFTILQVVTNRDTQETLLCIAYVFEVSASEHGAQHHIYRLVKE
T1 sequence (Q15561 217-434): as the sequence (Q15561 217-434 C367S) above, with S151C counted along it

Row | reversibility of inhibition after dialysis (TEAD4.Yap1 interaction [1]; 50 μM, 24 h at 4° C., then dialyzed against buffer 24 h at 4° C.) | inhibition / maximum inhibition of TEAD4.Yap1 interaction (TEAD4.Yap1 interaction [1]) [%] | maximum inhibition of TEAD4 (TEAD4.Yap1 interaction [1]; 48 h incubation at 4° C.) [%] | t1/2^∞ (half-life of inactivation) (TEAD4.Yap1 interaction [1]) [h] | adduct formation with TEAD4 Cys367Ser mutant (TEAD4 Cys367Ser mutant [3]) | kinact (TEAD4.Yap1 interaction [5]; read-out: maximum rate of inactivation (kinact) (converted)) [s⁻¹] | kinact (TEAD4.Yap1 interaction [5]; read-out: rate of inactivation kinact (converted)) [s⁻¹] | SMILES | CTGF transcript levels versus vehicle (CTGF transcript levels [2]) | inhibition of TEAD4 Cys367Ser mutant binding to the peptide (TEAD4 Cys367Ser mutant [4]) | CTGF transcript levels versus control cells (CTGF transcript levels [6])
1 | irreversible inhibitor | 53 | 80 | 18.2 | failed to form an adduct | 1.06e-05 |  | O=C(CCl)c1ccccc1Nc1cccc(C(F)(F)F)c1 [Compound 2, 2-chloro-1-(2-((3-(trifluoromethyl)phenyl)amino)phenyl)ethanone] | suppressed CTGF transcript levels | did not inhibit | significant reduction
2 |  | 81 |  | 14.3 | formed an adduct |  | 1.36e-05 | O=C(CCl)c1ncccc1Nc1cccc(C(F)(F)F)c1 [Compound 5, 2-chloro-1-(3-((3-(trifluoromethyl)phenyl)amino)pyridin-2-yl)ethanone] | suppressed CTGF transcript levels | also inhibited the TEAD4 Cys367Ser mutant | significant reduction
